Where a SMILES comes first, the peptide text is derived from it. [ ]: non-standard residue; d: D form. The star is where a group is joined. Dolaproine = CO[C@@H]([C@@H]1CCCN1)[C@@H](C)C(=O)O; Dil = CC[C@H](C)[C@H](NC)[C@@H](CC(=O)O)OC; X1 = C[C@@H](N*)[C@@H](O)c1ccccc1; NMeV = CN[C@H](C(=O)O)C(C)C
How the values were obtained:
[1] = system: Human iPS-derived motor neuron; experiment: Pharmacological effect of antibody-MMAE conjugates: axonal amount (Tuj1 staining) in motor neuron neurospheres with LRRTM2 bead-induced presynapse; format: cell-based; conditions: normalized to Cont. IgG-MMAE set to 100%; 1µg/mL, 30 minutes with 100µM 4-aminopyridine, then 24 hours culture; Tuj1 brightness
Procedure: Human iPS-derived motor neuron (40HU-005-2M; ixcells biotechnologies) was thawed using Dead Cell Removal kit (Veritas) according to the protocol of the kit. The cells after thawing were plated in 96-well plates (V-bottom) at a density of 2×10^4 cells/well and cultured in the motor neuron culture medium (Motor Neuron Maintenance Medium; ixcells biotechnologies) for 1 week to prepare neurospheres. The prepared neurospheres were selected based on size and roundness, and those satisfying this criterion were used in the subsequent experiments.
After coating a 96-well EZVIEW (registered trademark) culture plate LB (AGC Technoglass Co., Ltd.) with poly-D-lysine and Geltrex (registered trademark) Matrix (Thermo Fisher Scientific), the selected neurospheres were then plated and cultured for 20 days. As the medium, the above-described motor neuron culture medium was used first, and medium change with the same medium was performed on the second day of culture. Thereafter, medium was changed three times per week using neuronal medium (Neurobasal plus medium (B27 plus supplement (Thermo Fisher Scientific), 20ng/mL BDNF, 20ng/mL GDNF, and penicillin-streptomycin were added)). Each medium change was performed at 50 µL/well.
Microbeads coated with the extracellular domain of LRRTM2 (active beads) were prepared as disclosed in WO2021/006075. […]

[2] = target: human Synaptotagmin 2 expressed on HEK293T cells (human) (UniProt Q8N9I0); experiment: flow cytometry on HEK293T cells expressing human SYT2 at 0.01 µg/mL antibody; reference is the polyclonal rabbit anti-SYT2 N-terminal antibody (Synaptic Systems 105 223)
Chain of UniProt Q8N9I0 (Q8N9I0 whole entry): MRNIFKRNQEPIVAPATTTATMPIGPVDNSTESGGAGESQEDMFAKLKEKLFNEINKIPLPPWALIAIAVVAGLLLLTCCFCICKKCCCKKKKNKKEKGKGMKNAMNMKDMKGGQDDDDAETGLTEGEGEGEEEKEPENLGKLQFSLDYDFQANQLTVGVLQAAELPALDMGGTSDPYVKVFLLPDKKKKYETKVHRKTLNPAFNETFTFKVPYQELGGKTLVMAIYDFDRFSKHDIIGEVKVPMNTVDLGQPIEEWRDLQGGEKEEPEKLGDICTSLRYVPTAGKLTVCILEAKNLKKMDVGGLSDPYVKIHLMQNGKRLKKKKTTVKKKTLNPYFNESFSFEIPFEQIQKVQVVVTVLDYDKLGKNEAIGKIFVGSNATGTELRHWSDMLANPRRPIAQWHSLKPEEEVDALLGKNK

Row | Molecule | relative amount of axon [1] | fluorescence intensity relative to the control polyclonal antibody [2]
1 | CC[C@H](C)[C@@H]([C@@H](CC(=O)N1CCC[C@H]1[C@H](OC)[C@@H](C)C(=O)N[C@H](C)[C@@H](O)c1ccccc1)OC)N(C)C(=O)[C@@H](NC(=O)[C@@H](NC)C(C)C)C(C)C [MMAE, monomethyl auristatin E] (H-[NMeV]V[Dil][Dolaproine]-X1) | no significant differences | 
2 | monoclonal antibody according to the present invention (anti-Synaptotagmin 2 intravesicular domain (N-terminal) monoclonal antibody) (antibody, V domains shown) VH: EVQLQQSGAELVRPGASVKLSCTASGFNIKDDYVHWVKQRPEQGLEWIGWIDPENGDTEYASKFQGKATITADASSNAAYLQLSSLTSEDTAAYYCTTDYYNNPFAYWGQGTLVTVSA VL: QIVLTQSPAIMSASPGEKVTITCSASSSVSYMHWFQQKPGTSPKLWIYSTSKLASGVPVRFSGSGSGTSYSLTISRMEAEDAATYYCQQRSSYPFTFGSGTKLEIK |  | 2 fold
